The values below come from patent publication US11390591B2, “2,4,6-trisubstituted s-triazine compound, preparation method therefor, and use thereof” (Aluda Pharmaceuticals, Inc., priority 2016, dated 2022).

Type in all cases: cell-based
Assay [1] concerns cell lines of human brain glioma (U87). Kind of assay: In vitro antineoplastic activity, MTT experiment, U87. As for the experimental part: (§1) MTT, RPM1640 culture medium, fetal bovine serum, 96-well plate, CO2 thermostatic incubator, American BIO-RAD680 microplate reader, cell lines of human non-small cell lung cancer (H522), and cell lines of human brain glioma (U87) were all obtained commercially.
(§2) (1) Cell inoculation: A single cell suspension was prepared with culture media supplemented with 10% fetal bovine serum, plated into a 96-well plate with 5000 cells per well, each well having a volume of 100 μL, and cultured overnight.
(§3) (2) Preparation of compound solutions: a DMSO stock solution of a compound was diluted on a sterile bench with a culture medium into 5 concentrations to be tested, wherein a double dilution was employed between two adjacent concentrations.
(§4) (3) The compound solutions of various concentrations were added into the 96-well plate cultured overnight, with 100 μL added per well, triplicated wells for each concentration. Since the peripheral wells can have edge effect and are susceptible to contamination, no cells or compounds were added thereto; instead, 100 μL culture solution was added as a blank. Additionally, 100% wells were set to contain the cells and 100 μL culture media without any compound. The plates were incubated in a thermostatic incubator at 37° C. for 48 hours.
(§5) (4) Staining: 10 μL MTT solution (5 mg/mL, prepared with PBS) was added into the 96-well plate for staining. After incubation for 4 hours, centrifugation was performed at 2500 rpm for 10 minutes. Then, a multiple pipette was used to suck the culture solution out of the wells carefully without sucking out the cells while the pipette tip faced downward. 150 μL DMSO was added and shaken on a shaker for 5-10 minutes. Crystals were allowed to dissolve fully, and an OD value for each well was measured using the microplate reader at 570 nm. The inhibition rate was calculated as follows: Inhibition rate (%)=(average OD value of 100% wells−average OD value of compound wells)/(average OD value of 100% wells−average OD value of blank wells)×100%

For assay [2], the system named is cell lines of human non-small cell lung cancer (H522). Kind of assay: In vitro antineoplastic activity, MTT experiment, H522. The following applies: H522 cells, 48 hours, highest concentration tested 31.6 μM (>30: inhibition rate <50%). As for the experimental part: as §1, §2, §3, §4, §5
Another assay concerns human glioma U87 cells. Kind of assay: Tumor cell vacuolization (methuosis) scoring, U87. Also on record: key to Vacuolation Score: 5 scores were given when obvious vacuolization occurred at 10 nM; 4 scores at 31.6 nM; 3 scores at 100 nM; 2 scores at 316 nM; 1 score at 1000 nM; 0 score was given if no vacuolation occurred at any concentration. Conditions: U87 cells, 0.01-3.160 μM, 96 hours, microscope. The procedure:
FIG. 2. Vacuolization of tumor cells. 100 microliter culture medium (RPMI1640, 2 mmol glutamine, 10% fetal bovine serum) containing 10^3 human colon adenocarcinoma cells (HCT15) or human brain glioma cells (U87) and a solvent DMSO control or 100 nM #40 compound (L16) was plated into a 96-well cell culture plate, and cell morphological image was taken under a phase contrast microscope after cultured at 5% CO2 and 37° C. for 96 hours.
Some cells gradually became round and eventually bursted. These changes are consistent with the features of cell death by methuosis (FIG. 2).
In order to compare the ability of different compounds to cause cell vacuolization, 100 μL culture media (RPMI1640, 2 mmol glutamine, 10% fetal bovine serum) comprising 10^3 human glioma U87 cells and final concentrations of 0.01, 0.0316, 0.1, 0.316, 1.0, 3.160 μM respectively of the compounds to be tested were inoculated into a 96-well culture plate. After cultured at 5% CO2 and 37° C. for 96 hours, cell morphology was observed under a high-magnification microscope, and the ability of the compounds to cause cell vacuolization was scored. 5 scores were given when obvious vacuolization occurred at 10 nM, 4 scores at 31.6 nM, 3 scores at 100 nM, 2 scores at 316 nM, 1 score at 1000 nM, and 0 score was given if no vacuolation occurred at any concentration.

[3] abbreviates: U87 cells, MTT, 48 hours, highest concentration tested 31.6 μM, read-out: IC50(μM) U87.
Setting [4] is: ability to inhibit cell proliferation, U87 (FIG. 3), unit inferred, read-out: IC50.

SMILES strings stand for the structures. Read-outs that look alike come from different tables or passages of the source.

A word on the IC50: it is the point on the concentration scale where inhibition reaches its midpoint. For `CN1CCN(c2nc(/C=C/c3cccc(Cl)c3)nc(Nc3ccc(NC(=O)Nc4ccc(F)cc4)cc3)n2)CC1` [L9, (E)-1-(4-fluorophenyl)-3-(4-(4-(4-methylpiperazin-1-yl)-6-(3-chlorostyrenyl)-1,3,5-triazinyl-2-amino)phenyl)urea], the IC50 was found to be 1.47 ± 0.12 µM in assay [1] (setting [3]), 1.47 µM in assay [1] (setting [4]) and 3.88 ± 0.65 µM in assay [2]. For the same molecule, in the assay on human glioma U87 cells, the “Vacuolation Score” value is on record as 2 (2 scores at 316 nM).

On to `O=C(Nc1ccc(Cl)cc1)Nc1ccc(Nc2nc(/C=C/c3ccc(Cl)cc3)nc(N3CCOCC3)n2)cc1` [L10, (E)-1-(4-chlorophenyl)-3-(4-(4-(morpholin-1-yl)-6-(4-chlorostyrenyl)-1,3,5-triazinyl-2-amino)phenyl)urea], for which the results for the IC50 in assay [1] (setting [3]), in assay [1] (setting [4]) and in assay [2] were 4.92 ± 0.16 µM, 4.92 µM and 2.18 ± 0.23 µM, respectively. The “Vacuolation Score” value in the assay on human glioma U87 cells is listed as 3 (3 scores at 100 nM).

As for `O=C(Nc1ccc(F)cc1)Nc1ccc(Nc2nc(/C=C/c3ccc(Cl)cc3)nc(N3CCOCC3)n2)cc1` [L11, (E)-1-(4-fluorophenyl)-3-(4-(4-(morpholin-1-yl)-6-(4-chlorostyrenyl)-1,3,5-triazinyl-2-amino)phenyl)urea], the IC50 in assay [1] (setting [3]) is 2.5 ± 0.08 µM; in assay [1] (setting [4]) it was 2.5 µM; in assay [2] it was 0.3 ± 0.03 µM. Besides, in the assay on human glioma U87 cells, the “Vacuolation Score” value is recorded as 2 (2 scores at 316 nM).

Take `O=C(Nc1ccc(Nc2nc(/C=C/c3ccc(Cl)cc3)nc(N3CCOCC3)n2)cc1)Nc1cccc(F)c1` [L12, (E)-1-(3-fluorophenyl)-3-(4-(4-(morpholin-1-yl)-6-(4-chlorostyrenyl)-1,3,5-triazinyl-2-amino)phenyl)urea]: the IC50 is 4.41 ± 0.43 µM in assay [1] (setting [3]), 4.43 µM in assay [1] (setting [4]) and 2.55 ± 0.12 µM in assay [2]. The “Vacuolation Score” value in the assay on human glioma U87 cells is 2 (2 scores at 316 nM).

As for `CN1CCN(c2nc(/C=C/c3ccc(Cl)cc3)nc(Nc3ccc(NC(=O)Nc4ccc(Cl)cc4)cc3)n2)CC1` [L13, (E)-1-(4-chlorophenyl)-3-(4-(4-(4-methylpiperazin-1-yl)-6-(4-chlorostyrenyl)-1,3,5-triazinyl-2-amino)phenyl)urea], the results for the half-maximal inhibitory concentration (IC50) in assay [1] (setting [3]), in assay [1] (setting [4]) and in assay [2] were 2.04 ± 0.09 µM, 2.04 µM and 0.87 ± 0.08 µM, respectively. Besides, the “Vacuolation Score” value in the assay with human glioma U87 cells is reported as 0.

Consider `CN1CCN(c2nc(/C=C/c3ccc(Cl)cc3)nc(Nc3ccc(NC(=O)Nc4ccc(F)cc4)cc3)n2)CC1` [L14, (E)-1-(4-fluorophenyl)-3-(4-(4-(4-methylpiperazin-1-yl)-6-(4-chlorostyrenyl)-1,3,5-triazinyl-2-amino)phenyl)urea], for which the IC50 worked out at 2.48 ± 0.11 µM in assay [1] (setting [3]), 2.48 µM in assay [1] (setting [4]) and 5.03 ± 0.49 µM in assay [2]. In addition, the “Vacuolation Score” value in the assay with human glioma U87 cells is on record as 0.

For the molecule `CN1CCN(c2nc(/C=C/c3ccc(Cl)cc3)nc(Nc3ccc(NC(=O)Nc4cccc(F)c4)cc3)n2)CC1` [L15, (E)-1-(3-fluorophenyl)-3-(4-(4-(4-methylpiperazin-1-yl)-6-(4-chlorostyrenyl)-1,3,5-triazinyl-2-amino)phenyl)urea], the figures for the concentration for half-maximal inhibition (IC50) in assay [1] (setting [3]), in assay [1] (setting [4]) and in assay [2] were 2.92 ± 0.21 µM, 2.91 µM and 4.26 ± 0.1 µM, respectively. In addition, in the assay on human glioma U87 cells, the “Vacuolation Score” value was determined as 0.

For `O=C(Nc1ccc(F)cc1)Nc1ccc(Nc2nc(/C=C/c3cccc([N+](=O)[O-])c3)nc(N3CCOCC3)n2)cc1` [L17, (E)-1-(4-fluorophenyl)-3-(4-(4-(morpholin-1-yl)-6-(3-nitrostyrenyl)-1,3,5-triazinyl-2-amino)phenyl)urea], the IC50 in assay [1] (setting [3]) is 1.11 ± 0.1 µM; in assay [1] (setting [4]), 1.19 µM; in assay [2] it was above 30 µM. Moreover, in the assay with human glioma U87 cells, the “Vacuolation Score” value worked out at 3.5.

On to `CN1CCN(c2nc(/C=C/c3cccc([N+](=O)[O-])c3)nc(Nc3ccc(NC(=O)Nc4ccc(Cl)cc4)cc3)n2)CC1` [L18, (E)-1-(4-chlorophenyl)-3-(4-(4-(4-methylpiperazin-1-yl)-6-(3-nitrostyrenyl)-1,3,5-triazinyl-2-amino)phenyl)urea], for which the values for the IC50 in assay [1] (setting [3]), in assay [1] (setting [4]) and in assay [2] were 1.21 ± 0.07 µM, 1.21 µM and 2.31 ± 0.17 µM, respectively. Moreover, in the assay on human glioma U87 cells, the “Vacuolation Score” value is reported as 0.

With `CN1CCN(c2nc(/C=C/c3cccc([N+](=O)[O-])c3)nc(Nc3ccc(NC(=O)Nc4ccc(F)cc4)cc3)n2)CC1` [L19, (E)-1-(4-fluorophenyl)-3-(4-(4-(4-methylpiperazin-1-yl)-6-(3-nitrostyrenyl)-1,3,5-triazinyl-2-amino)phenyl)urea], the figures for the IC50 in assay [1] (setting [3]), in assay [1] (setting [4]) and in assay [2] were 1.62 ± 0.09 µM, 1.8 µM and 1.34 ± 0.22 µM, respectively. Moreover, in the assay on human glioma U87 cells, the “Vacuolation Score” value was found to be 0.

With `CN(C)c1nc(/C=C/c2cccc([N+](=O)[O-])c2)nc(Nc2ccc(NC(=O)Nc3ccc(Cl)cc3)cc2)n1` [L20, (E)-1-(4-chlorophenyl)-3-(4-(4-dimethylamino-6-(3-nitrostyrenyl)-1,3,5-triazinyl-2-amino)phenyl)urea], the IC50 in assay [1] (setting [3]) is 5.12 ± 0.28 µM; in assay [1] (setting [4]), 5.12 µM; in assay [2], 5.55 ± 0.4 µM. In the assay with human glioma U87 cells, the “Vacuolation Score” value was 0.

As for `O=C(Nc1ccc(Cl)cc1)Nc1ccc(Nc2nc(/C=C/c3cccc([N+](=O)[O-])c3)nc(N3CCCC3)n2)cc1` [L21, (E)-1-(4-chlorophenyl)-3-(4-(4-(pyrrolidin-1-yl)-6-(3-nitrostyrenyl)-1,3,5-triazinyl-2-amino)phenyl)urea], the results for the IC50 in assay [1] (setting [3]), in assay [1] (setting [4]) and in assay [2] were 4.47 ± 0.39 µM, 4.47 µM and 7.3 ± 0.75 µM, respectively. Besides, in the assay with human glioma U87 cells, the “Vacuolation Score” value was determined as 0.

As for `O=C(Nc1ccc(Cl)cc1)Nc1ccc(Nc2nc(/C=C/c3cccc([N+](=O)[O-])c3)nc(N3CC(O)C3)n2)cc1` [L22, (E)-1-(4-chlorophenyl)-3-(4-(4-(3-hydroxyazetidin-1-yl)-6-(3-nitrostyrenyl)-1,3,5-triazinyl-2-amino)phenyl)urea], the IC50 in assay [1] (setting [3]) worked out at 1.32 ± 0.22 µM; in assay [1] (setting [4]), 1.33 µM; in assay [2] it was 1.27 ± 0.08 µM. In addition, the “Vacuolation Score” value in the assay on human glioma U87 cells is 0.

In the case of `O=C(Nc1ccc(Cl)cc1)Nc1cccc(Nc2nc(/C=C/c3ccccc3)nc(N3CCOCC3)n2)c1` [L23, (E)-1-(4-chlorophenyl)-3-(3-(4-(morpholin-1-yl)-6-styrenyl-1,3,5-triazinyl-2-amino)phenyl)urea], the IC50 is 1 ± 0.06 µM in assay [1] (setting [3]), 1 µM in assay [1] (setting [4]) and 1.44 ± 0.1 µM in assay [2]. For the same molecule, in the assay with human glioma U87 cells, the “Vacuolation Score” value is 0.

In the case of `CN1CCN(c2nc(/C=C/c3ccccc3)nc(Nc3cccc(NC(=O)Nc4ccc(Cl)cc4)c3)n2)CC1` [L24, (E)-1-(4-chlorophenyl)-3-(3-(4-(4-methylpiperazin-1-yl)-6-styrenyl-1,3,5-triazinyl-2-amino)phenyl)urea], the IC50 in assay [1] (setting [3]) worked out at 4.4 ± 0.88 µM; in assay [1] (setting [4]), 4.4 µM; in assay [2], 4.03 ± 0.65 µM. Moreover, the “Vacuolation Score” value with human glioma U87 cells is 0.

For the molecule `O=C(Nc1ccc(Cl)cc1)Nc1cccc(Nc2nc(/C=C/c3cccc(Cl)c3)nc(N3CCOCC3)n2)c1` [L25, (E)-1-(4-chlorophenyl)-3-(3-(4-(morpholin-1-yl)-6-(3-chlorostyrenyl)-1,3,5-triazinyl-2-amino)phenyl)urea], the IC50 in assay [1] (setting [3]) is 2.2 ± 0.21 µM; in assay [1] (setting [4]) it was 2.2 µM; in assay [2] it was 2.53 ± 0.28 µM. In the assay with human glioma U87 cells, the “Vacuolation Score” value worked out at 0.
